Assay results published in patent US4258043A, “Pyrazino-carbazoles, process for the production thereof and pharmaceutical agents” (Cassella Aktiengesellschaft, priority 1979, dated 1981).
Counter-ions that a name gives are not always drawn.

Legend:
[1] = LD50 (acute toxicity); settings: in vivo
[2] = tested on: Tetrabenazine; experiment: animal or person; type: in vivo; settings: read-out: ED50 Tetrabenazine Antagonism
[3] = in vivo; type: in vivo; settings: in vivo; ratio of LD50 to ED50 tetrabenazine antagonism (head is a drawing); read-out: Dosage [drawing 7]

| Compound | LD50 [1] | ED50 [2] | selectivity ratio [3] |
| --- | --- | --- | --- |
| Cc1ccc2c(c1)c1c3n2CCNC3CCC1.Cl (centres unmarked) [8-methyl-2,3,3a,4,5,6-hexahydro-1H-pyrazino[3,2,1-jk]carbazole-hydrochloride, reference compound] | 122 mg/kg | 14 mg/kg | – |
| Cc1ccc2c(c1)c1c3n2CCN=C3CCC1 [Example 1, 8-methyl-2,4,5,6-tetrahydro-1H-pyrazino[3,2,1-jk]carbazole] | 72 mg/kg | 4 mg/kg | 18 |
| COc1ccc2c(c1)c1c3n2CCN=C3CCC1 [Example 2, 8-methoxy-2,4,5,6-tetrahydro-1H-pyrazino[3,2,1-jk] carbazole-hydrochlorides] | 37 mg/kg | 2 mg/kg | 18.5 |
